Laboratory results published in patent US12077503B2, “Substituted cyclic amides and their use as herbicides” (FMC CORPORATION, priority 2015, dated 2024).

Key:
Format in all cases: in vivo
[1] = tested on: Kochia (Kochia scoparia); test: Test A preemergence; conditions: Bassia scoparia, pre-emergence, 240 h
In short: (§1)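 Ratings of 0 (no effect) to 100 (complete control) come from visual comparison with untreated controls roughly 10 d after treatment. Test chemicals, formulated in a non-phytotoxic solvent mixture with surfactant, were applied either as a preemergence directed soil spray on seeded soil or postemergence to one- to two-leaf plants 2 to 10 cm tall.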

[2] = tested on: barnyardgrass (Echinochloa crus-galli); test: Test A preemergence; conditions: Echinochloa crus-galli, pre-emergence, 240 h
In short: as §1

[3] = tested on: giant foxtail (Setaria faberii); test: Test A preemergence; conditions: Setaria faberi, pre-emergence, 240 h
In short: as §1

[4] = tested on: pigweed (Amaranthus retroflexus); test: Test A preemergence; conditions: Amaranthus retroflexus, pre-emergence, 240 h
[5] = tested on: ragweed (common ragweed, Ambrosia elatior); test: Test A preemergence; conditions: Ambrosia artemisiifolia, pre-emergence, 240 h
In short: as §1

[6] = tested on: ryegrass, Italian (Italian ryegrass, Lolium multiflorum); test: Test A preemergence; conditions: Lolium multiflorum, pre-emergence, 240 h
In short: as §1

[7] = tested on: Galium (catchweed bedstraw, Galium aparine); test: Test A postemergence; conditions: Galium, post-emergence, 240 h, read-out: Plant response rating, Galium
In short: as §1

[8] = tested on: Kochia (Kochia scoparia); test: Test A postemergence; conditions: Bassia scoparia, post-emergence, 240 h, read-out: Plant response rating, Kochia
In short: as §1

[9] = tested on: barnyardgrass (Echinochloa crus-galli); test: Test A postemergence; conditions: Echinochloa crus-galli, post-emergence, 240 h, read-out: Plant response rating, Barnyardgrass
In short: as §1

[10] = tested on: blackgrass (Alopecurus myosuroides); test: Test A postemergence; conditions: Alopecurus myosuroides, post-emergence, 240 h, read-out: Plant response rating, Blackgrass
In short: as §1

[11] = tested on: corn (Zea mays); test: Test A postemergence; conditions: Zea mays, post-emergence, 240 h
In short: as §1

[12] = tested on: giant foxtail (Setaria faberii); test: Test A postemergence; conditions: Setaria faberi, post-emergence, 240 h, read-out: Plant response rating, Foxtail, Giant
In short: as §1

[13] = tested on: pigweed (Amaranthus retroflexus); test: Test A postemergence; conditions: Amaranthus retroflexus, post-emergence, 240 h, read-out: Plant response rating, Pigweed
In short: as §1

[14] = tested on: ragweed (common ragweed, Ambrosia elatior); test: Test A postemergence; conditions: Ambrosia artemisiifolia, post-emergence, 240 h, read-out: Plant response rating, Ragweed
In short: as §1

[15] = tested on: ryegrass, Italian (Italian ryegrass, Lolium multiflorum); test: Test A postemergence; conditions: Lolium multiflorum, post-emergence, 240 h, read-out: Plant response rating, Ryegrass, Italian
In short: as §1

[16] = tested on: wheat (Triticum aestivum); test: Test A postemergence; conditions: Triticum aestivum, post-emergence, 240 h, read-out: Plant response rating, Wheat
In short: as §1

[17] = tested on: barnyardgrass (Echinochloa crus-galli); test: Test B flooded paddy test; conditions: Echinochloa crus-galli, 250 g ai/ha, Flood; 0 to 100 scale where 0 is no effect and 100 is complete control; read-out: Barnyardgrass plant response rating
In short: (§2)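 Response scored visually against untreated controls, 0 = no effect and 100 = complete control, 13–15 d after treatment in the greenhouse. Compounds added to paddy water held 3 cm above soil surface. Treatment given at 2-leaf stage.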

[18] = tested on: ducksalad (Heteranthera limosa); test: Test B flooded paddy test; conditions: Heteranthera limosa, 250 g ai/ha, Flood; 0 to 100 scale where 0 is no effect and 100 is complete control; read-out: Ducksalad plant response rating
In short: as §2

[19] = tested on: rice (Oryra sativa); test: Test B flooded paddy test; conditions: Oryza sativa, 250 g ai/ha, Flood; 0 to 100 scale where 0 is no effect and 100 is complete control; read-out: Rice plant response rating
In short: as §2

[20] = tested on: sedge, umbrella (small-flower umbrella sedge, Cyperus difformis); test: Test B flooded paddy test; conditions: Cyperus difformis, 250 g ai/ha, Flood; 0 to 100 scale where 0 is no effect and 100 is complete control; read-out: Sedge, Umbrella plant response rating
In short: as §2

[21] = 125 g ai/ha, Postemergence, visual injury after approximately 10 d, 0 to 100 scale where 0 is no effect and 100 is complete control
[22] = 500 g ai/ha, postemergence, visual injury, 0 to 100 scale (0 no effect, 100 complete control), approx. 10 d

CSc1ccccc1NC(=O)[C@H]1C(=O)N(C)CC[C@@H]1c1ccc(OC(F)(F)F)cc1 [Compound 1001]
0%: pest or weed control at 125 g/ha ([1]; 125 g ai/ha, Preemergence, visual injury rating after approximately 10 d, read-out: Kochia plant response rating (0 to 100 scale, 0 is no effect, 100 is complete control)) | pest or weed control at 500 g/ha ([1]; 500 g ai/ha, preemergence, visual injury rating about 10 d after treatment, 0 to 100 scale (0 no effect, 100 complete control), read-out: Kochia plant response rating) | pest or weed control at 125 g/ha ([2]; 125 g ai/ha, Preemergence, visual injury rating after approximately 10 d, read-out: Barnyardgrass plant response rating (0 to 100 scale, 0 is no effect, 100 is complete control)) | pest or weed control at 500 g/ha ([2]; 500 g ai/ha, preemergence, visual injury rating about 10 d after treatment, 0 to 100 scale (0 no effect, 100 complete control), read-out: Barnyardgrass plant response rating) | pest or weed control at 125 g/ha ([3]; 125 g ai/ha, Preemergence, visual injury rating after approximately 10 d, read-out: Foxtail, Giant plant response rating (0 to 100 scale, 0 is no effect, 100 is complete control)) | pest or weed control at 500 g/ha ([3]; 500 g ai/ha, preemergence, visual injury rating about 10 d after treatment, 0 to 100 scale (0 no effect, 100 complete control), read-out: Foxtail, Giant plant response rating) | pest or weed control at 125 g/ha ([4]; 125 g ai/ha, Preemergence, visual injury rating after approximately 10 d, read-out: Pigweed plant response rating (0 to 100 scale, 0 is no effect, 100 is complete control)) | pest or weed control at 500 g/ha ([4]; 500 g ai/ha, preemergence, visual injury rating about 10 d after treatment, 0 to 100 scale (0 no effect, 100 complete control), read-out: Pigweed plant response rating) | pest or weed control at 125 g/ha ([5]; 125 g ai/ha, Preemergence, visual injury rating after approximately 10 d, read-out: Ragweed plant response rating (0 to 100 scale, 0 is no effect, 100 is complete control)) | pest or weed control at 500 g/ha ([5]; 500 g ai/ha, preemergence, visual injury rating about 10 d after treatment, 0 to 100 scale (0 no effect, 100 complete control), read-out: Ragweed plant response rating) | pest or weed control at 125 g/ha ([6]; 125 g ai/ha, Preemergence, visual injury rating after approximately 10 d, read-out: Ryegrass, Italian plant response rating (0 to 100 scale, 0 is no effect, 100 is complete control)) | pest or weed control at 500 g/ha ([6]; 500 g ai/ha, preemergence, visual injury rating about 10 d after treatment, 0 to 100 scale (0 no effect, 100 complete control), read-out: Ryegrass, Italian plant response rating) | pest or weed control at 125 g/ha [7, 21] | pest or weed control at 500 g/ha [7, 22] | pest or weed control at 125 g/ha [8, 21] | pest or weed control at 500 g/ha [8, 22] | pest or weed control at 125 g/ha [9, 21] | pest or weed control at 500 g/ha [9, 22] | pest or weed control at 125 g/ha [10, 21] | pest or weed control at 500 g/ha [10, 22] | Corn plant response rating (crop injury, 0 = no effect, 100 = complete kill) at 125 g/ha [11, 21] | Corn plant response rating (crop injury, 0 = no effect, 100 = complete kill) at 500 g/ha [11, 22] | pest or weed control at 125 g/ha [12, 21] | pest or weed control at 500 g/ha [12, 22] | pest or weed control at 125 g/ha [13, 21] | pest or weed control at 500 g/ha [13, 22] | pest or weed control at 125 g/ha [14, 21] | pest or weed control at 500 g/ha [14, 22] | pest or weed control at 125 g/ha [15, 21] | pest or weed control at 500 g/ha [15, 22] | plant injury at 125 g/ha [16, 21] | plant injury at 500 g/ha [16, 22] | pest or weed control at 250 g/ha [17] | pest or weed control at 250 g/ha [18] | pest or weed control at 250 g/ha [19] | pest or weed control at 250 g/ha [20]
